Source: patent US10987408B2, “Compositions and methods for modulating toll-like receptor 2 activation” (THE CLEVELAND CLINIC FOUNDATION, priority 2010, dated 2021)

How the values were obtained:
Type in all cases: cell-based
[1] = tested on: mouse aortic endothelial cells (MAEC); assay: Mouse aortic ring assay
Description: The mouse aortic ring assay was performed as previously described (Mahabeleshwar, G. H. et al., Methods Mol Med. 129:197-208, 2006).

HUVEC [2] = assay: HUVEC tube formation assay
Description: (§1) HUVEC or MLEC cells were seeded on Matrigel-coated plates (BD Bioscience). Medium was supplemented with VEGF or protein adducts as indicated, and cells were further incubated at 37° C. for 8 h. Tube formation was observed using a phase contrast inverted microscope, and photographs were taken from each well. The data were quantified by measuring the length of tubes with ImagePro software.

HUVEC [3] = assay: Cell adhesion assay
Description: We performed cell adhesion assays as described elsewhere (Byzova, T. V. et al., J Cell Biol. 143(7):2081-2092, 1998). Briefly, 10^4 HUVEC or MLEC cells were added to ligand coated wells of a 96-well plate and incubated for 1 h in the presence of CEP-adduct or VEGF as indicated. The cells were washed with and fixed with 4% paraformaldehyde in PBS. Thereafter cells were contrasted by hematoxylin staining and photographs were taken.

[4] = tested on: Mouse Lung Microvascular EC (MLEC); assay: MLEC tube formation assay; conditions: TLR2^−/− EC
Description: Mouse lungs were excised, minced, and digested using a collagenase-dispase reagent (Roche Diagnostic). Digests were strained and the resulting cell suspension was plated on flasks coated with 1 mg/ml fibronectin. Thereafter, endothelial cells were isolated and characterized as described previously (Mahabeleshwar, G. H. et al., Methods Mol Med. 129:197-208, 2006).
as §1

Substance | pro-angiogenic effect, aortic ring sprouting ([1]; wild type / TLR2^+/+ mice) | pro-angiogenic effect, tube formation (HUVEC [2]) | EC adhesion stimulation (HUVEC [3]) | EC sprouting, aortic ring ([1]; MyD88^−/− cells) | EC response, aortic ring sprouting ([1]; TLR2^−/− mice) | EC response, tube formation [4]
Pam3CSK4 | induced robust sprouting | as effective a stimulator as CEP or VEGF | as effective a stimulator as CEP or VEGF |  |  | 
VEGF |  |  |  | not affected by the lack of MyD88 | not affected by the lack of TLR2 | not affected by the lack of TLR2
